{"source": "PubChem BioAssay (NCI)", "experiment_in_all_cases": "NCI tumour cell line growth inhibition, 384-well format", "key": {"OVCAR-3 ovarian": {"tested_on": "OVCAR-3 ovarian"}, "PC-3 prostate": {"tested_on": "PC-3 prostate"}, "RXF 393 renal": {"tested_on": "RXF 393 renal"}, "M14 melanoma": {"tested_on": "M14 melanoma"}, "SK-MEL-2 melanoma": {"tested_on": "SK-MEL-2 melanoma"}, "HOP-92 NSCLC": {"tested_on": "HOP-92 NSCLC"}, "SW-620 colon": {"tested_on": "SW-620 colon"}, "UO-31 renal": {"tested_on": "UO-31 renal"}, "K-562 leukemia": {"tested_on": "K-562 leukemia"}, "SF-268 CNS": {"tested_on": "SF-268 CNS"}, "NCI/ADR-RES ovarian": {"tested_on": "NCI/ADR-RES ovarian"}, "786-0 renal": {"tested_on": "786-0 renal"}, "ACHN renal": {"tested_on": "ACHN renal"}}, "note": "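GI50 = concentration required for 50% inhibition of growth. TGI is the concentration that stops growth completely.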", "data": [{"compound": "C[C@@H](O)[C@H](NC(=O)N[C@@H](CC(N)=O)c1nc([C@@H](N)CO)no1)C(=O)O", "values": [{"measurement": "GI50", "setting": "OVCAR-3 ovarian", "result": "> 100", "unit": "µM"}, {"measurement": "TGI", "setting": "OVCAR-3 ovarian", "result": "> 100", "unit": "µM"}, {"measurement": "GI50", "setting": "PC-3 prostate", "result": "> 100", "unit": "µM"}, {"measurement": "TGI", "setting": "PC-3 prostate", "result": "> 100", "unit": "µM"}, {"measurement": "GI50", "setting": "RXF 393 renal", "result": "> 100", "unit": "µM"}, {"measurement": "TGI", "setting": "RXF 393 renal", "result": "> 100", "unit": "µM"}, {"measurement": "GI50", "setting": "M14 melanoma", "result": "> 100", "unit": "µM"}, {"measurement": "TGI", "setting": "M14 melanoma", "result": "> 100", "unit": "µM"}, {"measurement": "GI50", "setting": "SK-MEL-2 melanoma", "result": "> 100", "unit": "µM"}, {"measurement": "TGI", "setting": "SK-MEL-2 melanoma", "result": "> 100", "unit": "µM"}, {"measurement": "GI50", "setting": "HOP-92 NSCLC", "result": "> 100", "unit": "µM"}, {"measurement": "TGI", "setting": "HOP-92 NSCLC", "result": "> 100", "unit": "µM"}, {"measurement": "GI50", "setting": "SW-620 colon", "result": "> 100", "unit": "µM"}, {"measurement": "TGI", "setting": "SW-620 colon", "result": "> 100", "unit": "µM"}, {"measurement": "GI50", "setting": "UO-31 renal", "result": "> 100", "unit": "µM"}, {"measurement": "TGI", "setting": "UO-31 renal", "result": "> 100", "unit": "µM"}, {"measurement": "GI50", "setting": "K-562 leukemia", "result": "> 100", "unit": "µM"}, {"measurement": "TGI", "setting": "K-562 leukemia", "result": "> 100", "unit": "µM"}, {"measurement": "GI50", "setting": "SF-268 CNS", "result": "> 100", "unit": "µM"}, {"measurement": "TGI", "setting": "SF-268 CNS", "result": "> 100", "unit": "µM"}, {"measurement": "GI50", "setting": "NCI/ADR-RES ovarian", "result": "> 100", "unit": "µM"}, {"measurement": "TGI", "setting": "NCI/ADR-RES ovarian", "result": "> 100", "unit": "µM"}, {"measurement": "GI50", "setting": "786-0 renal", "result": "> 100", "unit": "µM"}, {"measurement": "TGI", "setting": "786-0 renal", "result": "> 100", "unit": "µM"}, {"measurement": "GI50", "setting": "ACHN renal", "result": "> 100", "unit": "µM"}, {"measurement": "TGI", "setting": "ACHN renal", "result": "> 100", "unit": "µM"}]}]}
